Data: US4863951A, “Pharmacologically active amino-5,6,7,8-tetrahydronaphtho [2,3-B] furan compounds” (ADIR Et Cie, priority 1987, dated 1989)
Where a name gives a salt, the structure may show the parent alone. Read-outs that look alike come from different tables or passages of the source.

Key:
[1] = test system: isolation-induced aggression; test: Antiaggressive effects: isolation-induced aggression in mice; assay type: in vivo; details: isolated mice, i.p.
Excerpt: (§1) The antiaggressive effects of the compounds of the invention were investigated by two methods, one of them testing for an inhibition of aggressive behavior in peviously isolated mice (Yen C. Y., Stanger A. L., and Millman N, Arch. Int. Pharmacodyn. Therap. (1959), 123, p. 179-185), and the other in isolated and bulbectomized rats (Garattini S. and Sigg E. B. "Aggressive Behaviour" p. 47-55 Ed. Excerpta Medica Found., Amsterdam, 1969).
(§2) (Tables IX and X, s=significant, p<0.05).

[2] = test system: apomorphine-induced stereotypy; test: Antagonism of apomorphine-induced stereotypy in rats; assay type: in vivo; details: Rattus norvegicus, ip, 0.5 h, apomorphine 1.5 mg.kg^-1 i.p., 30 minutes
Procedure: The inhibitory activity of the compounds of the invention with respect to apomorphine- or amphetamine-induced stereotypy in rats was assessed using the scale of scoring of stereotyped movements described by Quinton R. M. and Halliwell G. in Nature (1963), 200, p. 178-179.
Apomorphine or amphetamine was administered to the animals intraperitoneally at a dose of 1.5 mg.kg^-1. The percentage inhibition (-) or potentiation (+) of the stereotypy score (% ISS) shown in Tables IV and V for apomorphine corresponds to a measurement time of 30 minutes. In contrast, the percentage inhibition of the stereotypy score shown in Table VI for amphetamine corresponds to a measurement time of 3 hours. […]

[3] = test system: apomorphine-induced hypothermia; test: Antagonism with respect to apomorphine-induced hypothermia in mice; assay type: in vivo; details: Mus musculus, ip, apomorphine 1 mg.kg^-1 s.c., after 2 hours
Procedure: Testing for an antagonism with respect to apomorphine-induced hypothermia in mice was performed according to the method described by CHERMAT R. and PONCELET M. in J. Pharmac. (1983), 14, No. 1, p. 93-97. The dose of apomorphine administered subcutaneously was 1 mg.kg^-1. Tables VII and VIII show the percentage antagonism of the hypothermia observed after 2 hours.

[4] = test system: apomorphine-induced rearing-up; test: Antagonism of apomorphine-induced rearing-up behavior in mice; assay type: in vivo; details: Mus musculus, ip, apomorphine 0.75 mg.kg^-1 s.c.
Procedure: Studied in the test of antagonism of apomorphine-induced rearing-up following the subcutaneous administration of a dose of 0.75 mg.kg^-1 of this substance in mice, the compounds of general formula I act in a clear-cut manner at doses greater than or equal to 2.5 mg.kg^-1 (i.p.). The same results are observed when the compounds of general formula I are administered orally at a dose of 20 mg.kg^-1. The activity of the compounds was assessed according to the method described by Protais P, Costentin J and Schwartz J. C. in Psychopharmacology (1976), 50, p. 1-6.
(s=significant difference, p<0.05).

[5] = test system: reserpine-induced hypothermia; test: Antagonism of reserpine-induced hypothermia; assay type: in vivo, Swiss CD male mice; details: mice, reserpine 2.5 mg.kg^-1 i.p.
Procedure: The antidepressant effects of the compounds of the invention were investigated by assessing the antagonism of reserpine-induced hypothermia and the antagonism of the ponto-geniculo-occipital waves induced by the compound Ro4-1284 in cats.
The study is carried out on Swiss CD male mice (27-28 g). After distribution into groups of 10 animals each, reserpine is injected intraperitoneally at a dose of 2.5 mg.kg^-1. Three hours later, the compounds undergoing trial are administered intraperitoneally. The rectal temperature of the animals is measured one hour and two hours after the second treatment, and compared with the initial temperature To of these same animals, measured immediately before the administration of the compounds undergoing trial.

[6] = test system: aggression of isolated, bulbectomized rats; test: Antiaggressive effects: aggression of isolated, bulbectomized rats; assay type: in vivo; details: i.p., 5 mg.kg^-1, hydrochloride
Excerpt: as §1, §2

[7] = read-out: % ISS (inhibition (-) or potentiation (+) of the stereotypy score), rats, i.p. dose 10 mg.kg^-1
[8] = 2 h, read-out: % antagonism of hypothermia, mice, i.p. dose 10
[9] = 2 h, read-out: % antagonism of hypothermia, mice, i.p. dose 20
[10] = read-out: % inhibition of rearing-up, mice, i.p. dose 20 mg.kg^-1
[11] = read-out: % inhibition of rearing-up, mice, i.p. dose 40 mg.kg^-1
[12] = read-out: % inhibition of rearing-up, mice, i.p. dose 10 mg.kg^-1
[13] = rats, i.p. dose 10 mg.kg^-1, read-out: % ISS (inhibition (-) or potentiation (+) of the stereotypy score)
[14] = rats, i.p. dose 20 mg.kg^-1, read-out: % ISS (inhibition (-) or potentiation (+) of the stereotypy score)
[15] = mice, i.p. dose 10, read-out: % antagonism of hypothermia
[16] = mice, i.p. dose 20, read-out: % antagonism of hypothermia
[17] = mice, i.p. dose 10 mg.kg^-1, read-out: % inhibition of rearing-up
[18] = mice, i.p. dose 20 mg.kg^-1, read-out: % inhibition of rearing-up
[19] = mice, i.p. dose 40 mg.kg^-1, read-out: % inhibition of rearing-up

In the case of CCCN(CCC)C1CCc2cc3c(cc2C1)OCC3 (racemic) [Example 5, dl-7-(N,N-Dipropylamino)-2,3,5,6,7,8-hexahydronaphtho[2,3-b]furan], the “% of pairs of mice showing no sign of fighting” value ([1]; 20 mg.kg^-1) is reported as 50%, the “% of pairs of mice showing no sign of fighting” value ([1]; 40 mg.kg^-1) is reported as 89% and the change in vivo at 5 mg/kg ([2]; read-out: % ISS (inhibition (-) or potentiation (+) of the stereotypy score), rats, i.p. dose 5 mg.kg^-1) is reported as -3%. It also gave a change in vivo at 10 mg/kg [2, 7] of 0%, a change in vivo at 5 mg/kg ([3]; 2 h, read-out: % antagonism of hypothermia, mice, i.p. dose 5) of -20% and a change in vivo at 10 mg/kg [3, 8] of -47%. It also gave a change in vivo at 20 mg/kg [3, 9] of -68%, a change in vivo at 20 mg/kg [4, 10] of 27% and a change in vivo at 40 mg/kg [4, 11] of -54%.
In the case of CN(CC1CCCCC1)C1CCc2cc3c(cc2C1)OCC3 (racemic) [Example 10, dl-7-(N-Cyclohexylmethyl-N-methylamino)-2,3,5,6,7,8-hexahydronaphtho[2,3-b]furan hydrochloride], the “% of pairs of mice showing no sign of fighting” value ([1]; 5 mg.kg^-1) is reported as 0%, the “% of pairs of mice showing no sign of fighting” value ([1]; 10 mg.kg^-1) is reported as 11% and the “% of pairs of mice showing no sign of fighting” value ([1]; 20 mg.kg^-1) is reported as 60%. The change in vivo at 10 mg/kg [4, 12] was 11%, the change in vivo at 20 mg/kg [4, 10] was 11% and the change in vivo at 40 mg/kg [4, 11] was -96%.
For NC1CCCc2cc3c(cc21)OCC3 (racemic) [Example 15, dl-8-Amino-2,3,5,6,7,8-hexahydronaphtho[2,3-b]furan hyrochloride], the change in vivo at 20 mg/kg [4, 10] was -9% and the change in vivo at 40 mg/kg [4, 11] was 0%.
Molecule NC1CCCc2cc3c(cc21)CCO3 (racemic) [Example 18, dl-5-Amino-2,3,5,6,7,8-hexahydronaphtho[2,3,-b]furan hydrochloride] has a change in vivo at 20 mg/kg [4, 10] of -12% and a change in vivo at 40 mg/kg [4, 11] of 6%.
NC1CCc2cc3c(cc2C1)CCO3 (racemic) [Example 19, dl-6-Amino-2,3,5,6,7,8-hexahydronaphtho[2,3-b]furan hydrochloride] showed a change in vivo at 20 mg/kg [4, 10] of -57% and a change in vivo at 40 mg/kg [4, 11] of -90%.
In the case of NC1CCc2cc3ccoc3cc2C1 (racemic) [Example 21, dl-7-Amino-5,6,7,8-tetrahydronaphtho[2,3-b]furan hydrochloride], the change in vivo at 10 mg/kg [4, 12] is reported as -56% and the change in vivo at 20 mg/kg [4, 10] is reported as -84%.
For O=C(O)CCCCCNC1CCc2cc3c(cc2C1)OCC3 (racemic) [Example 25, dl-6-{N-(2,3,6,7,8-Hexahydronaphtho[2,3-b]furan-7-yl)amino}hexanoic acid hydrochloride], the “% of pairs of mice showing no sign of fighting” value ([1]; 10 mg.kg^-1) was 20% and the change in vivo at 10 mg/kg [2, 13] was 9%.
CC(CCCC(=O)O)NC1CCc2cc3c(cc2C1)OCC3 (racemic) [Example 27] was tested, and the change in vivo at 10 mg/kg [2, 13] was -5%, the change in vivo at 20 mg/kg [2, 14] was -8% and the “% inhibition of hypothermia” value ([5]; 10 mg.kg^-1 i.p.) was -13%. The “% inhibition of hypothermia” value ([5]; 20 mg.kg^-1 i.p.) was -21%, the change in vivo at 10 mg/kg [3, 15] was -5% and the change in vivo at 20 mg/kg [3, 16] was -32%. It also gave a change in vivo at 10 mg/kg [4, 17] of -46% and a change in vivo at 20 mg/kg [4, 18] of -63%.
CC(CCCCC(=O)O)NC1CCc2cc3c(cc2C1)OCC3 (racemic) [Example 29, dl-6-{N-(2,3,5,6,7,8-Hexahydronaphtho[2,3-b]furan-7-yl)amino}-6-methylhexanoic acid hydrochloride] was tested, and the change in vivo at 10 mg/kg [2, 13] was 11%.
With CC(CCCCCC(=O)O)NC1CCc2cc3c(cc2C1)OCC3 (racemic) [Example 31, dl-7-{N-(2,3,5,6,7,8-Hexahydronaphtho[2,3-b]furan-7-yl)amino}-7-methylheptanoic acid hydrochloride] the change in vivo at 10 mg/kg [2, 13] was 5%, the change in vivo at 20 mg/kg [2, 14] was -3% and the change in vivo at 20 mg/kg [4, 18] was 5%. It also gave a change in vivo at 40 mg/kg [4, 19] of 22%.
In the case of OCCCCCCNC1CCc2cc3c(cc2C1)OCC3 (racemic) [Example 32, dl-7-[N-(6-Hydroxyhexyl)amino]-2,3,5,6,7,8-hexahydronaphtho[2,3-b]furan hydrochloride], the “% of pairs of mice showing no sign of fighting” value ([1]; 5 mg.kg^-1) is reported as 10%, the “% of pairs of mice showing no sign of fighting” value ([1]; 20 mg.kg^-1) is reported as 30% and the change in vivo at 10 mg/kg [2, 13] is reported as -3%. For the same molecule, the change in vivo at 20 mg/kg [2, 14] was -5%, the “% inhibition of hypothermia” value ([5]; 10 mg.kg^-1 i.p.) was -1% and the “% inhibition of hypothermia” value ([5]; 20 mg.kg^-1 i.p.) was -29%. For the same molecule, the change in vivo at 10 mg/kg [3, 15] was -10%, the change in vivo at 20 mg/kg [3, 16] was -13% and the change in vivo at 20 mg/kg [4, 18] was -32%. For the same molecule, the change in vivo at 40 mg/kg [4, 19] was -40%.
CCCNC1CCc2cc3c(cc2C1)OCC3 (racemic) [Example 34, dl-7-N-n-Propylamino)-2,3,5,6,7,8-hexahydronaphtho[2,3,-b]furan hydrochloride] showed a change in vivo at 10 mg/kg [2, 7] of -68%, a change in vivo at 20 mg/kg ([2]; read-out: % ISS (inhibition (-) or potentiation (+) of the stereotypy score), rats, i.p. dose 20 mg.kg^-1) of -70% and a change in vivo at 10 mg/kg [3, 8] of -7%. For the same molecule, the change in vivo at 20 mg/kg [3, 9] was -16%, the change in vivo at 10 mg/kg [4, 12] was -23% and the change in vivo at 40 mg/kg [4, 11] was -100%.
With FC(F)(F)CNC1CCc2cc3c(cc2C1)OCC3 (racemic) [Example 35, dl-7-[N-(2,2,2-Trifluoroethyl)amino]-2,3,5,6,7,8-hexahdronaphtho[2,3-b]furan hydrochloride] the “% inhibition of hypothermia” value ([5]; 10 mg.kg^-1 i.p.) was -20%, the “% inhibition of hypothermia” value ([5]; 20 mg.kg^-1 i.p.) was -4% and the change in vivo at 10 mg/kg [3, 15] was -16%. For the same molecule, the change in vivo at 20 mg/kg [3, 16] was -31%, the change in vivo at 10 mg/kg [4, 17] was -30% and the change in vivo at 20 mg/kg [4, 18] was -38%.
Work on O=C1CCCN1C1CCc2cc3c(cc2C1)OCC3 (racemic) [Example 37, dl-7-(2-Oxo-1-pyrrolidinyl)-2,3,5,6,7,8-hexahydronaphtho[2,3-b]furan] yielded a change in vivo at 10 mg/kg [2, 13] of -6% and a change in vivo at 20 mg/kg [2, 14] of -14%.
In the case of CNC1CCc2cc3c(cc2C1)OCC3 (stereo not drawn) [Example 39, l-7-(N-Methylamino)-2,3,5,6,7,8-hexahydronaphtho[2,3-b]furan hydrochloride], the “% of pairs of mice showing no sign of fighting” value ([1]; 2.5 mg.kg^-1) is reported as 70%, the “% of pairs of mice showing no sign of fighting” value ([1]; 5 mg.kg^-1, hydrochloride) is reported as 90% and the “% inhibition of hypothermia” value ([5]; 2.5 mg.kg^-1 i.p., hydrochloride) is reported as “+37%”. The “% inhibition of hypothermia” value ([5]; 5 mg.kg^-1 i.p., hydrochloride) was “+14%”, the “% inhibition of hypothermia” value ([5]; 10 mg.kg^-1 i.p., hydrochloride) was “+6%” and the “% inhibition of hypothermia” value ([5]; 20 mg.kg^-1 i.p.) was “+15%”. The “% of rats rendered non-aggressive” value [6] was 58%.
